Test results published in PubChem BioAssay (NCI).
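Briefly, cells in 96-well plates were exposed to five compound concentrations for 48 h, and endpoints were estimated by linear interpolation. TGI: total growth inhibition.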

Legend:
Experiment in all cases: inhibition of tumour cell growth, NCI panel, 48 h
MALME-3M melanoma = system: MALME-3M melanoma
DU-145 prostate = system: DU-145 prostate
MCF7 breast = system: MCF7 breast
RPMI-8226 leukemia = system: RPMI-8226 leukemia
HS 578T breast = system: HS 578T breast
MDA-N = system: MDA-N
ACHN renal = system: ACHN renal
T-47D breast = system: T-47D breast
NCI-H522 lung = system: NCI-H522 lung
SN12C renal = system: SN12C renal
SNB-75 CNS = system: SNB-75 CNS
UACC-257 melanoma = system: UACC-257 melanoma
A498 renal = system: A498 renal
OVCAR-4 ovarian = system: OVCAR-4 ovarian
SF-268 CNS = system: SF-268 CNS
OVCAR-8 ovarian = system: OVCAR-8 ovarian
IGROV1 ovarian = system: IGROV1 ovarian
HOP-92 NSCLC = system: HOP-92 NSCLC
DMS 273 small cell lung = system: DMS 273 small cell lung
KM20L2 colon = system: KM20L2 colon

`CCCOP(=O)(OCCC)OC(C(F)(F)F)C(F)(F)F` was tested, and the TGI (MALME-3M melanoma) was over 100 µM, the TGI (DU-145 prostate) was over 100 µM and the TGI (MCF7 breast) was over 100 µM. The TGI (RPMI-8226 leukemia) was over 100 µM, the TGI (HS 578T breast) was over 100 µM and the TGI (MDA-N) was over 100 µM. It also gave a TGI (ACHN renal) of over 100 µM, a TGI (T-47D breast) of over 100 µM and a TGI (NCI-H522 lung) of over 100 µM. The TGI (SN12C renal) was over 100 µM, the TGI (SNB-75 CNS) was over 100 µM and the TGI (UACC-257 melanoma) was over 100 µM. It also gave a TGI (A498 renal) of over 100 µM.
Compound `COc1cc2cc(C(=O)N3CC(CCl)c4ccc(N(C)C)cc43)[nH]c2c(OC)c1OC` (stereo not drawn) has a TGI (DU-145 prostate) of 0.359 µM, a TGI (MCF7 breast) of 0.604 µM and a TGI (HS 578T breast) of 0.758 µM. It also gave a TGI (MDA-N) of 0.431 µM, a TGI (OVCAR-4 ovarian) of 0.729 µM and a TGI (T-47D breast) of 0.378 µM. It also gave a TGI (NCI-H522 lung) of 0.0349 µM, a TGI (SN12C renal) of 0.531 µM and a TGI (SF-268 CNS) of 3.81 µM.
`CN1Cc2cc(O)c(O)cc2C(O)C1` (stereo not drawn) gave a TGI (MALME-3M melanoma) of over 100 µM, a TGI (DU-145 prostate) of over 100 µM and a TGI (MCF7 breast) of over 100 µM. The TGI (RPMI-8226 leukemia) was over 100 µM, the TGI (OVCAR-8 ovarian) was over 100 µM and the TGI (HS 578T breast) was over 100 µM. For the same compound, the TGI (IGROV1 ovarian) was over 100 µM, the TGI (MDA-N) was over 100 µM and the TGI (ACHN renal) was over 100 µM. For the same compound, the TGI (OVCAR-4 ovarian) was over 100 µM, the TGI (T-47D breast) was over 100 µM and the TGI (NCI-H522 lung) was over 100 µM. For the same compound, the TGI (SN12C renal) was over 100 µM, the TGI (SF-268 CNS) was over 100 µM and the TGI (SNB-75 CNS) was over 100 µM. For the same compound, the TGI (UACC-257 melanoma) was over 100 µM and the TGI (HOP-92 NSCLC) was over 100 µM.
Work on `CN(O)C(=O)CCCC(=O)NCC(C)(C)CNC(=O)CCCC(=O)N(C)O` yielded a TGI (MALME-3M melanoma) of over 100 µM, a TGI (DU-145 prostate) of over 100 µM and a TGI (MCF7 breast) of over 100 µM. It also gave a TGI (RPMI-8226 leukemia) of over 100 µM, a TGI (OVCAR-8 ovarian) of over 100 µM and a TGI (HS 578T breast) of over 100 µM. It also gave a TGI (IGROV1 ovarian) of over 100 µM, a TGI (MDA-N) of over 100 µM and a TGI (ACHN renal) of over 100 µM. For the same compound, the TGI (OVCAR-4 ovarian) was over 100 µM, the TGI (T-47D breast) was over 100 µM and the TGI (SF-268 CNS) was over 100 µM. It also gave a TGI (SNB-75 CNS) of over 100 µM, a TGI (UACC-257 melanoma) of over 100 µM and a TGI (A498 renal) of over 100 µM. For the same compound, the TGI (HOP-92 NSCLC) was over 100 µM.
`CCOc1ccc(C(C)c2cc3c(cc2OC)OCO3)cc1` (stereo not drawn) was tested, and the TGI (DMS 273 small cell lung) was 11.7 µM, the TGI (MALME-3M melanoma) was 89.7 µM and the TGI (RPMI-8226 leukemia) was 22.2 µM. The TGI (OVCAR-8 ovarian) was 9.59 µM, the TGI (IGROV1 ovarian) was over 100 µM and the TGI (ACHN renal) was over 100 µM. It also gave a TGI (OVCAR-4 ovarian) of over 100 µM, a TGI (NCI-H522 lung) of 0.166 µM and a TGI (SN12C renal) of 40.7 µM. For the same compound, the TGI (SF-268 CNS) was 45.5 µM, the TGI (KM20L2 colon) was 0.414 µM and the TGI (UACC-257 melanoma) was 52.8 µM. For the same compound, the TGI (HOP-92 NSCLC) was 9.93 µM.
In the case of `COC1=CC(=O)C=C(OC)C1=O`, the TGI (DMS 273 small cell lung) is reported as 76.8 µM, the TGI (MALME-3M melanoma) is reported as 51 µM and the TGI (MCF7 breast) is reported as 42.7 µM. For the same compound, the TGI (RPMI-8226 leukemia) was 20.5 µM, the TGI (OVCAR-8 ovarian) was 32.1 µM and the TGI (IGROV1 ovarian) was 31.3 µM. It also gave a TGI (OVCAR-4 ovarian) of 16.8 µM, a TGI (NCI-H522 lung) of 34.4 µM and a TGI (SN12C renal) of 35.1 µM. It also gave a TGI (SF-268 CNS) of 15.3 µM, a TGI (KM20L2 colon) of 66.8 µM and a TGI (SNB-75 CNS) of 55.9 µM. The TGI (UACC-257 melanoma) was 34.4 µM, the TGI (A498 renal) was 3.39 µM and the TGI (HOP-92 NSCLC) was 7.89 µM.
